Where two headings read alike, the source gives them in different places.
Assays:
Human venous whole blood = test: Human whole blood IFN-γ assay; type: cell-based; settings: human whole blood, read-out: INFg Whole Blood Normalized Agonist EC50;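 also: blood from healthy donors exposed to compound for 1 h before stimulation with anti-CD3 and anti-CD28 at 1 µg/mL each, IFN-γ quantified in supernatant by AlphaLISA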
human DGKζ = target: T1, human DGKζ (Homo sapiens, UniProt Q13574); test: DGKζ LIPGLO assay (extruded liposome substrate), in vitro DGK inhibition; type: biochemical; settings: read-out: DGKz LIPGLO IC50
T1 construct: TVMV protease cleavage site (C); Hexa-His (C); made in house; host or cells: Sf9 insect cells (baculovirus, Bac-to-Bac)

human DGKα = target: T2, human DGKα (Homo sapiens, UniProt P23743); test: DGKα LIPGLO assay (extruded liposome substrate), in vitro DGK inhibition; type: biochemical; settings: read-out: DGKa LIPGLO IC50
T2 construct: TVMV protease cleavage site (C); Hexa-His (C); made in house; host or cells: Sf9 insect cells (baculovirus, Bac-to-Bac)

[1] = anti-CD3 plus anti-CD28, 24 hours, 3 μM reference compound = 100% activation
[2] = normalized to 3 μM reference compound with anti-CD3 plus anti-CD28 as 100% activation
[3] = Homo sapiens, 24 h, normalized to 3 μM reference compound with anti-CD3 plus anti-CD28 as 100% activation
[4] = Homo sapiens, 24 h, anti-CD3 plus anti-CD28, 24 hours, 3 μM reference compound = 100% activation

T2 sequence (P23743 with tags, fused parts or gaps): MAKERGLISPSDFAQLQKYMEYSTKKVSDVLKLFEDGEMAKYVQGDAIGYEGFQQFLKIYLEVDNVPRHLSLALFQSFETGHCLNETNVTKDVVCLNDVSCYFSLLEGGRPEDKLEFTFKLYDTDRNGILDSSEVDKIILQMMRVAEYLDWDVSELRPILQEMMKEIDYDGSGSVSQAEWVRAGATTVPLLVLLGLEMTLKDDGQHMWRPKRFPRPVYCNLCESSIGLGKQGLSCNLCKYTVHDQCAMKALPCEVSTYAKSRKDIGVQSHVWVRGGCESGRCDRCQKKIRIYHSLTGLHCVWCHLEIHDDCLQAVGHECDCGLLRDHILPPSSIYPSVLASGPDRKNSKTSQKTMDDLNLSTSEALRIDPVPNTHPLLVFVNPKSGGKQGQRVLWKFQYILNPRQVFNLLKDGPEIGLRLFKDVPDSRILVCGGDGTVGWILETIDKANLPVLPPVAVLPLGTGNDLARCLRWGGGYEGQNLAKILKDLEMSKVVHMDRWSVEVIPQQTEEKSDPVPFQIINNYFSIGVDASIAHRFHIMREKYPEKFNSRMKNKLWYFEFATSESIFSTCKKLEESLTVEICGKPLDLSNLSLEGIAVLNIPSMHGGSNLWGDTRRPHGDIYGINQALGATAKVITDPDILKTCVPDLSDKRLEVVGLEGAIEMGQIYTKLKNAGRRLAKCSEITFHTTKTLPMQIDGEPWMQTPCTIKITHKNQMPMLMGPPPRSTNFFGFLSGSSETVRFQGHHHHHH
T1 sequence (Q13574 with tags, fused parts or gaps isoform Q13574-4): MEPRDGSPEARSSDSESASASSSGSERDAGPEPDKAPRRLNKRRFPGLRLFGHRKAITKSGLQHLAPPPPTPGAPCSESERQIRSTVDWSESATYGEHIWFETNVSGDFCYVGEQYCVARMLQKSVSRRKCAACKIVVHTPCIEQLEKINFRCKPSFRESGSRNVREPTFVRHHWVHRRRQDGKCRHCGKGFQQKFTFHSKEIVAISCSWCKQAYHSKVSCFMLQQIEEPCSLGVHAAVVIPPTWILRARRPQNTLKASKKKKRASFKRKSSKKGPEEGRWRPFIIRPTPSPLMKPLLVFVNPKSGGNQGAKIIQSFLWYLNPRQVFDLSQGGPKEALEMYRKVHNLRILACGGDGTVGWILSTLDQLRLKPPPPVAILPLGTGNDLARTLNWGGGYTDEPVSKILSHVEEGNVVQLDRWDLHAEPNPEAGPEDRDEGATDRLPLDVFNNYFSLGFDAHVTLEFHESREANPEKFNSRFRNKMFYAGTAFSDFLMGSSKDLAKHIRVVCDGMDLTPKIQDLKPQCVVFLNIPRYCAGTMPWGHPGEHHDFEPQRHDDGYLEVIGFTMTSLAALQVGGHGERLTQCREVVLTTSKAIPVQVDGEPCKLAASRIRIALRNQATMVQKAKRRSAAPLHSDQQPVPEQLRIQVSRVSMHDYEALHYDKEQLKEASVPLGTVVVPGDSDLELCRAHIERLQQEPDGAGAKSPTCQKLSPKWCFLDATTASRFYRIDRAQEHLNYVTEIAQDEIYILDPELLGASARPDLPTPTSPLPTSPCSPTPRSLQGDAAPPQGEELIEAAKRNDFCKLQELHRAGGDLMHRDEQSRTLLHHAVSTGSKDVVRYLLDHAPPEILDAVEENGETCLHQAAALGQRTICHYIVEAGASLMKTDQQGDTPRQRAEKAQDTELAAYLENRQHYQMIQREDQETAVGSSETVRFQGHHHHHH

| SMILES | IC50 (human DGKζ; DGKζ liposome (LIPGLO) assay) [nM] | IC50 (human DGKα; DGKα liposome (LIPGLO) assay) [nM] | IC50 (human DGKζ; liposome (LIPGLO) assay) [nM] | IC50 (human DGKα; liposome (LIPGLO) assay) [nM] | EC50 (Human venous whole blood; [1]) [nM] | EC50 (Human venous whole blood; [2]) [nM] | EC50 (Human venous whole blood; [3]) [nM] | EC50 (Human venous whole blood; [4]) [nM] |
| --- | --- | --- | --- | --- | --- | --- | --- | --- |
| C[C@@H]1CN(c2c(C#N)c(=O)n(C)c3ccc(C#N)nc23)[C@@H](C)CN1C(c1ccc(F)cc1)c1cc(C(C)(C)C)on1 (single isomer, unassigned) [Example 866] | 940 | 390 |  |  | 2300 |  |  |  |
| Cc1ccc(C(c2cccc3c2OCCCO3)N2C[C@H](C)N(c3cc(=O)n(C)c4ccc(C#N)nc34)C[C@H]2C)nc1 (single isomer, unassigned) [Example 451] |  |  | 530 | 24000 |  | 7600 |  |  |
| C[C@@H]1CN(c2cc(=O)n(C)c3ccc(C#N)nc23)[C@@H](C)CN1Cc1cccc2c1OCCN2 [Example 634] |  |  | 9000 | 4300 |  |  | 2900 |  |
| CC(c1ccc(C(F)(F)F)cc1)N1C[C@@H](C)N(c2cc(=O)n(C)c3ccc(C#N)nc23)C[C@@H]1C (single isomer, unassigned) [Example 346] |  |  | 1500 | 1300 |  | 1100 |  |  |
| C[C@@H]1CN(c2c(C#N)c(=O)n(C)c3ccc(C#N)nc23)[C@@H](C)CN1C(c1ccccc1)c1ccc(F)cc1 (stereo partly drawn) [Example 808] | 1600 | 4200 |  |  | 1300 |  |  |  |
| Cc1nccc(C(c2ccc(F)cc2)N2C[C@H](C)N(c3cc(=O)n(C)c4ccc(C#N)nc34)C[C@H]2C)n1 (single isomer, unassigned) [Example 401] |  |  | 4500 | 7800 |  | 930 |  |  |
| CC(c1ccc(C(F)(F)F)cc1)N1C[C@@H](C)N(c2cc(=O)n(C)c3ccc(C#N)nc23)C[C@@H]1C (single isomer, unassigned) [Example 345] |  |  | 33000 | 4000 |  | 6800 |  |  |
| COc1cccc(C(c2ccc(F)cc2)N2C[C@H](C)N(c3cc(=O)n(C)c4ccc(C#N)nc34)C[C@H]2C)c1 (single isomer, unassigned) [Example 660] |  |  | 510 | 17000 |  |  | 660 |  |
| CC(c1cccc(C(F)(F)F)n1)N1C[C@H](C)N(c2cc(=O)n(C)c3ccc(C#N)nc23)C[C@H]1C (single isomer, unassigned) [Example 637] |  |  | 840 | 170 |  | 10000 |  |  |
| C[C@@H]1CN(c2cc(=O)n(C)c3ccc(C#N)nc23)[C@@H](C)CN1Cc1ccc(OC(F)(F)F)cc1F (single isomer, unassigned) [Example 591] |  |  | 3900 | 3100 |  |  | 19000 |  |
| C[C@@H]1CN(c2c(F)c(=O)n(C)c3ccc(C#N)nc23)[C@@H](C)CN1C(c1ccc(F)cc1)c1cccc(F)c1 (single isomer, unassigned) [Example 330] |  |  | 500 | 260 |  | 1200 |  |  |
| Cc1ccc(C(c2cccc(F)n2)N2C[C@H](C)N(c3cc(=O)n(C)c4ccc(C#N)nc34)C[C@H]2C)cc1 (single isomer, unassigned) [Example 479] |  |  | 1900 | 910 |  | 2100 |  |  |
| CC(c1ccc(C(F)(F)F)cc1F)N1C[C@H](C)N(c2cc(=O)n(C)c3ccc(C#N)nc23)C[C@H]1C (stereo partly drawn) [Example 431, 8-((2S,5R)-4-(1-(2-fluoro-4-(trifluoromethyl)phenyl)ethyl)-2,5-dimethylpiperazin-1-yl)-5-methyl-6-oxo-5,6-dihydro-1,5-naphthyridine-2-carbonitrile] |  |  | 1100 | 7300 |  |  | 1600 |  |
| COc1ccc(OC(F)(F)F)cc1CN1C[C@H](C)N(c2cc(=O)n(C)c3ccc(C#N)nc23)C[C@H]1C [Example 601] |  |  | 7700 | 2100 |  |  | 3300 |  |
| C[C@@H]1CN(c2cc(=O)n(C)c3ccc(C#N)nc23)[C@@H](C)CN1C(c1ccc(F)cc1)c1nc(C(F)F)no1 (stereo partly drawn) [Example 744] | 620 | 49 |  |  | 310 |  |  |  |
| C[C@@H]1CN(c2cc(=O)n(C)c3ccc(C#N)nc23)[C@@H](C)CN1C(c1ccc(F)cc1)c1nnc(C2CC2)[nH]1 (single isomer, unassigned) [Example 767] | 6600 | 440 |  |  | 2300 |  |  |  |

Second part, led by results:

| IC50 (human DGKζ; DGKζ liposome (LIPGLO) assay) [nM] | IC50 (human DGKα; DGKα liposome (LIPGLO) assay) [nM] | IC50 (human DGKζ; liposome (LIPGLO) assay) [nM] | IC50 (human DGKα; liposome (LIPGLO) assay) [nM] | SMILES | EC50 (Human venous whole blood; [1]) [nM] | EC50 (Human venous whole blood; [2]) [nM] | EC50 (Human venous whole blood; [3]) [nM] | EC50 (Human venous whole blood; [4]) [nM] |
| --- | --- | --- | --- | --- | --- | --- | --- | --- |
|  |  | 1200 | 150 | CC(c1ccc(OC(F)F)cn1)N1C[C@H](C)N(c2cc(=O)n(C)c3ccc(C#N)nc23)C[C@H]1C (single isomer, unassigned) [Example 1225] |  | 7700 |  |  |
|  |  | 1700 | 750 | CC(c1ccc(C#N)cc1F)N1C[C@H](C)N(c2cc(=O)n(C)c3ccc(C#N)nc23)C[C@H]1C (single isomer, unassigned) [Example 1226] |  | 8700 |  |  |
|  |  | 92 | 220 | CC(=O)N1CC(c2noc(C(c3ccc(F)cc3)N3C[C@H](C)N(c4cc(=O)n(C)c5ccc(C#N)nc45)C[C@H]3C)n2)C1 (single isomer, unassigned) [Example 1297] |  |  | 2700 |  |
|  |  | 69 | 67 | CCC(c1ccc(C2CC2)cc1F)N1C[C@H](C)N(c2cc(=O)n(C)c3ccc(C#N)nc23)C[C@H]1C (stereo partly drawn) [Example 1218] |  |  | 320 |  |
|  |  | 53000 | 34000 | C[C@@H]1CN(c2cc(=O)n(C)c3ccc(C#N)nc23)[C@@H](C)CN1Cc1cnoc1 [Example 1428] |  |  | 20000 |  |
| 270 | 2000 |  |  | C[C@@H]1CN(c2c(C#N)c(=O)n(C)c3ccc(C#N)nc23)CCN1C(c1ccc(F)cc1)c1ccc(F)cc1F (single isomer, unassigned) [Example 947] |  |  |  | 340 |
|  |  | 58 | 21 | CC[C@H]1CN(C(C)c2ccc(OC(F)(F)F)cc2F)[C@H](CC)CN1c1cc(=O)n(C)c2ccc(C#N)nc12 (single isomer, unassigned) [Example 1371] |  | 150 |  |  |
|  |  | 2100 | 37000 | CC(c1cccc2c1OC(F)(F)O2)N1C[C@H](C)N(c2cc(=O)n(C)c3ccc(C#N)nc23)C[C@H]1C (single isomer, unassigned) [Example 1217] |  | 4600 |  |  |
|  |  | 630 | 1100 | C[C@@H]1CN(c2cc(=O)n(C)c3ccc(C#N)nc23)[C@@H](C)CN1Cc1cc(F)c(F)c(F)c1 [Example 1235] |  |  | 3300 |  |
|  |  | 1000 | 65 | CC(c1ccc(OC(C)(C)C)cc1)N1C[C@H](C)N(c2cc(=O)n(C)c3ccc(C#N)nc23)C[C@H]1C (single isomer, unassigned) [Example 1442] |  | 530 |  |  |
|  |  | 430 | 1000 | CC[C@H]1CN(C(c2ccc(C)cc2)c2ccc(C)cc2)[C@H](C)CN1c1cc(=O)n(C)c2ccc(C#N)nc12 [Example 1119] |  |  | 17000 |  |
| 12000 | 2900 |  |  | C[C@@H]1CN(c2c(C#N)c(=O)n(C)c3ccc(C#N)nc23)CCN1C(c1ccc(F)cc1)c1cocn1 (stereo partly drawn) [Example 1022] |  |  |  | 2500 |
|  |  | 180 | 13 | CC[C@H]1CN(C(c2ccc(F)cc2)c2cscn2)[C@H](CC)CN1c1cc(=O)n(C)c2ccc(C#N)nc12 (single isomer, unassigned) [Example 1070] |  | 1100 |  |  |
|  |  | 180 | 850 | CCC(c1cc(OC(F)(F)F)ccc1F)N1C[C@H](CC)N(c2cc(=O)n(C)c3ccc(C#N)nc23)C[C@H]1C (single isomer, unassigned) [Example 1380] |  | 470 |  |  |
|  |  | 20 | 53 | COC[C@@H]1CN(c2cc(=O)n(C)c3ccc(C#N)nc23)[C@@H](C)CN1C(c1ccc(F)cc1)c1ccon1 (single isomer, unassigned) [Example 1400] |  | 120 |  |  |
| 7600 | 1100 |  |  | CC(c1ccc(Br)cc1)N1CCN(c2c(C#N)c(=O)n(C)c3ccc(C#N)nc23)C[C@H]1C (single isomer, unassigned) [Example 974] |  |  |  | 20000 |
| 2400 | 4600 |  |  | CCc1ccc(C(c2ccc(F)cc2)N2CCN(c3c(C#N)c(=O)n(C)c4ccc(C#N)nc34)C[C@H]2C)cc1 (stereo partly drawn) [Example 884] |  |  |  | 2200 |
|  |  | 1800 | 1100 | CC[C@@H]1CN(c2cc(=O)n(C)c3ccc(C#N)nc23)[C@@H](CC)CN1Cc1ccc2c(c1)OC(F)(F)O2 [Example 1063] |  |  | 430 |  |
| 1700 | 630 |  |  | Cc1ccc(C(c2ccc(F)cn2)N2CCN(c3c(C#N)c(=O)n(C)c4ccc(C#N)nc34)C[C@H]2C)cc1 (stereo partly drawn) [Example 899] | 990 |  |  |  |
|  |  | 590 | 880 | CC[C@H]1CN(C(C)c2ccc(F)cc2F)[C@H](CC)CN1c1cc(=O)n(C)c2ccc(C#N)nc12 (single isomer, unassigned) [Example 1056] |  | 580 |  |  |
| 1900 | 1300 |  |  | C[C@@H]1CN(c2c(C#N)c(=O)n(C)c3ccc(C#N)nc23)CCN1Cc1ccccc1C(F)(F)F [Example 1014] |  |  |  | 20000 |
|  |  | 580 | 6100 | COc1cc(F)ccc1C(C)N1C[C@H](C)N(c2cc(=O)n(C)c3ccc(C#N)nc23)C[C@H]1C (single isomer, unassigned) [Example 1237] |  | 12000 |  |  |
|  |  | 19000 | 1200 | C[C@@H]1CN(c2c(C#N)c(=O)n(C)c3ccc(C#N)nc23)CCN1C(c1ccc(F)cc1)c1nccs1 (single isomer, unassigned) [Example 1025] |  | 2000 |  |  |

— patent US10669272B2, “Substituted naphthyridinone compounds useful as T cell activators” (BRISTOL-MYERS SQUIBB COMPANY, priority 2018, dated 2020)
